Source: patent US5565462A, “Composition for topical treatment of psoriasis and atopic dermatitis comprising a xanthine derivative” (Teva Pharmaceutical Industries, Ltd., priority 1991, dated 1996)

How the values were obtained:
[1] = test system: human psoriatic skin transplants; assay: Topical treatment of human psoriatic skin transplanted to nude mice (epidermal thickness / acanthosis); type: in vivo, human skin on outbred Balb/C nude mice
Excerpt: Human psoriatic skin from psoriatic patients was transplanted to nude mice essentially according to the method of G. Kreuger et al., Prog. in Dermatol. […] The donors had stable plaque type psoriasis for at least one year preceding biopsy and had not received systemic anti-psoriatic therapy for the 4 weeks preceding biopsy. They had also not received topical therapy or U.V. therapy for the two weeks preceding biopsy. […] In this method the area (A) of the psoriasis in four main body parts (head (H), trunk (T), upper extremities (U) and lower extremities (L)) is assigned a value from 0-6 depending on the extent of psoriasis where O reflects no involvement and 6 reflects 90-100% involvement. The severity of the lesion is assessed based on three parameters: Erythema (E), Desquamation (scaling) (D) and Infiltration (I). The severity of each of these parameters is measured on a scale of 0-4 where 0 is no involvement and 4 is very sever. The total severity score is calculated according to the following formula: […]
Split thickness biopsies of nonpustular psoriatic human tissue, 4×5 cm and 0.4 mm thick were obtained from the edge of established plaques from various donor patients. […] The grafts were allowed to heal for one week prior to topical application of the test preparations.
Outbred Balb/C nude mice, 2 to 3 months of age were used in this study. The mice were obtained from the pathogen free animal breeding facility at the University of Tel Aviv (Israel) and were raised in the pathogen-free animal facility at the Faculty of Medicine, Technion-Israel Institute of Technology, Haifa, Israel.
On the day following the end of treatment the severity of the psoriatic lesion was assessed and then the animals were sacrificed and the entire graft was excised and divided into two equal sections. One section was used to assess changes in the rate of proliferation by autoradiography (tritiated thymidine incorporation) while the other section was sectioned for microscopic histological assessment, including acanthosis and parakeratosis.
In another series of experiments, human psoriatic skin of various severities was transplanted on each of 28 nude mice. The graft area was treated with various preparations as described above.
The treatments were applied as creams and were administered as described above.

atopic dermatitis = assay: Clinical trial in atopic dermatitis, 2% pentoxifylline cream vs vehicle, bilateral comparison; type: in vivo, human patients; settings: 2% cream twice a day, four weeks, seven patients aged 3-10 years
Experimental: A randomized double blind, vehicle controlled, bilateral comparison study was performed, to determine the effect of pentoxifylline (PTX) in the treatment of atopic dermatitis. The study medication contained 2% pentoxifylline in an oil-in-water cream vehicle, and the control treatment consisted of the same vehicle without the pentoxifylline. The exact formulations appear in Table 7.
Seven patients (aged 3-10 years) were enrolled in the trial and evaluated for pruritus, erythema, dryness/scaling and exudate. Pentoxifylline cream, or the placebo (the identical cream, but without the pentoxifylline) were dispensed in identical tubes that were marked for application to right and left sides. Patients were instructed to apply medication twice a day (morning and evening) for four weeks.

[2] = test system: human psoriatic fibroblasts; assay: Inhibition of human psoriatic fibroblast proliferation; type: cell-based; settings: Homo sapiens, Fibroblast
Experimental: PTX and PPF, alone as well as PTX in combination with other drugs were tested.
Human psoriatic fibroblasts were obtained from skin biopsies of 5 individuals with plaque psoriasis. Cells in the 3-7th passages were used for the experiments. Human psoriatic fibroblasts (4×10^3 -6×10^3 cells) were added in 24-well plates and cultured in Dulbecco's Modified Eagle's Medium (DMEM) supplemented with 10% fetal calf serum, 2 mM L-glutamine, 100 u/ml penicillin, 100 μg/ml streptomycin (DMEM+) at 5% CO2 and 95% humidity at 37° C.
After 3 days, medium was replaced with fresh DMEM+(control) or with medium containing various concentrations of compounds alone or in combination with pentoxifylline and incubation was continued for additional 3 days. Stock solutions (10^-1 -10^-2 M) of the compounds tested were made in ethanol. For these compounds special control (DMEM+ with 1% ethanol) was made. The compounds tested together with pentoxifylline were 3-heptanone, 3,3-dimethylbutyric acid, lipoic acid, 1,25-dihydroxyvitamin D3 betamethasone dipropionate and hydrocortisone-17-butyrate.
On the last day of experiments, the medium was aspirated and the cells were obtained by trypsinization. The number of cells in each well was counted by the use of an hemocytometer.
The percentage of inhibition of fibroblast proliferation was calculated according to the formula: [formula] and the results are shown in Tables 3 and 4.

[3] = test system: human peripheral blood mononuclear cells (lymphocytes); assay: Inhibition of the mitogenic (PHA) stimulation of human lymphocytes (PBMC), [3H]thymidine; type: cell-based
Experimental: Buffy coats from the Beilinson Medical Center Blood Bank or 20 mL samples of heparinized venous blood from healthy or atopic donors were used as a source for human peripheral blood mononuclear (PBM) cells. PBM cells were separated by Ficoll-Hypaque density gradient centrifugation. […] The nonadhering cells were stirred gently and carefully collected.
PHA (1 μg/mL), indomethacin (5 μg/mL) and various xanthine derivatives were added at initiation of culture. Indomethacin was dissolved in ethanol. […] [methyl-^3 H]Thymidine (1 μCi/well) was added at 68 h, and the cells were harvested 4 h later using an automated cell harvester (Dynatech, Alexandria, Va.). Unless otherwise stated, all cultures were performed in triplicate.

psoriasis lesions = assay: Clinical trial in psoriasis, 2% pentoxifylline cream vs placebo, right-left comparison, PASI; type: in vivo, human patients; settings: for decrease in PASI: 2% cream twice daily
Experimental: A clinical trial was performed comparing a cream composition of 2% pentoxifylline (formulation A of Example 1) to placebo. The trial was randomized, double blind, placebo controlled, right-left comparison within patient design.
Two similar plaque areas of psoriasis (i.e. both legs or forearms), were selected for treatment in each patient. In each patient one area on one side of the body was treated with 2% pentoxifylline formulated as in Example 1 and the other area on the other side of the body was treated with placebo cream formulated identically but without the pentoxifylline. The cream (formulation A in Example 1) was applied by the patient twice daily.
Patients stopped all forms of topical psoriatic treatment two weeks before entry into the study.
Systemic psoriatic treatments and phototherapy were stopped one month before entry into the study.
The dermatological assessment was performed as follows. The dermatologist measured the area of the lesion in cm^2. The severity of each lesion was evaluated by grading erythema, scaling and thickness on a 0-4 scale where 0=none, 1=slight, 2=moderate, 3=severe and 4=exceptionally severe.
Based on these measurements the Psoriasis Area Severity Index (PASI) was calculated for each of the 2 lesions on each patient as follows:
PASI=Area x (Erythema+Thickness+Scaling)

## CC(=O)CCCCn1c(=O)c2c(ncn2C)n(C)c1=O [Pentoxifylline, 3,7-dimethyl-1-(5-oxohexyl)-xanthine]
[1]; 2% PTX cream, 7 days, donor patient 3 (PASI 7.6)
  % Improvement (Decrease in Thickness): 40%
[1]; 2% PTX cream, 7 days, donor patient 4 (PASI 17.6)
  % Improvement (Decrease in Thickness): 22%
[1]; 2% PTX cream, 7 days, donor patient 6 (PASI 3.8), placebo 0
  % Improvement (Decrease in Thickness): 30%
[1]; 2% PTX cream, 7 days, placebo 5%
  Average Improvement (decrease in epidermal thickness): 31%
[1]; 2% PTX cream, donor patient 3 (PASI 7.6), before treatment 46 μm
  Epidermal Thickness (Acanthosis) after 7 days treatment: 28 μm
[1]; 2% PTX cream, donor patient 4 (PASI 17.6), before treatment 54 μm
  Epidermal Thickness (Acanthosis) after 7 days treatment: 42 μm
[1]; 2% PTX cream, donor patient 6 (PASI 3.8), before treatment 55 μm
  Epidermal Thickness (Acanthosis) after 7 days treatment: 39 μm
[1]; 2% pentoxifylline cream (Example 1A), 7 days topical, placebo 0/6
  SUCCESS RATIO (decrease of at least 15% in epidermal thickness): 6/10
[1]; experiment of Table 1, transplanted skin
  effectiveness in treating psoriasis (in words): almost as effective as steroids in treating psoriasis and far more effective than dyphylline
[1]; experiment of Table 2, 28 nude mice
  effectiveness in treating psoriasis (in words): almost as effective as topical steroids in treating psoriasis and far more effective than dyphylline
[1]; summary of the animal model experiments
  effectiveness in the treatment of psoriasis (in words): effective in the treatment of psoriasis
Atopic dermatitis
  improvement of pruritus, erythema, dryness/scaling and exudate (in words): significantly improved each of the four symptoms evaluated
[2]; PTX alone, 10^-3 M, Table 3
  inhibition at 1000 µM: 16.9%
[2]; compound alone, 10^-4 M, Table 4
  inhibition at 100 µM: 5.9%
[3]; Homo sapiens, Lymphocyte, 1 × 10^-3 M, lymphocytes from healthy volunteers, read-out: net inhibitory effect on the mitogenic stimulation of human lymphocytes
  inhibition at 1000 µM: 70%
[3]; Homo sapiens, Lymphocyte, 3 × 10^-4 M, lymphocytes from healthy volunteers, read-out: net inhibitory effect on the mitogenic stimulation of human lymphocytes
  inhibition at 300 µM: 46%
[3]; vs theophylline and diphylline, healthy volunteers
  inhibition of the mitogenic stimulation compared with the other xanthine derivatives (in words): inhibited the mitogenic stimulation to a far greater effect than the other xanthine derivatives
Psoriasis lesions; Patient 1, 1.5 weeks, placebo side 0%
  decrease in PASI: 58%
Psoriasis lesions; Patient 2, 2 weeks, placebo side 34%
  decrease in PASI: 53%
Psoriasis lesions; Patient 3, 2 weeks, placebo side 45%
  decrease in PASI: 73%
Psoriasis lesions; Patient 3, 6 weeks, placebo side 56%
  decrease in PASI: 90%
Psoriasis lesions; Patient 4, 6 weeks, placebo side 73%
  decrease in PASI: 91%
Psoriasis lesions; Patient 4, 8 weeks, placebo side 57%
  decrease in PASI: 88%
Psoriasis lesions; Patient 5, 2 weeks, placebo side 25%
  decrease in PASI: 73%
Psoriasis lesions; topical, summary of clinical trials
  effectiveness in the treatment of psoriatic lesions (in words): very effective therapeutic for the treatment of psoriatic lesions
